Measurements: the NIST ThermoML archive (doi:10.1016/j.jct.2004.09.021)

Legend:
[1] = xn = mol fraction of the nth substance listed; conditions: 101 kPa, Liquid
[2] = refractive index (Na D-line) (dimensionless); xn = mol fraction of the nth substance listed; conditions: 101 kPa, Liquid

CCCCCCC [heptane] + COc1ccccc1
x2 = 0
Conditions | mass density, 293.15 K [kg/m3] | mass density, 298.15 K [kg/m3] | mass density, 303.15 K [kg/m3] | refractive index, 293.15 K | refractive index, 298.15 K | refractive index, 303.15 K | viscosity, 293.15 K [mPa·s] | viscosity, 298.15 K [mPa·s] | viscosity, 303.15 K [mPa·s]
[1] | 683.96 | 679.77 | 675.5 | – | – | – | 0.4127 | 0.3909 | 0.3702
[2] | – | – | – | 1.3872 | 1.3855 | 1.3827 | – | – | –

COc1ccccc1 [anisole] + CCCCCCCCC
Conditions | mass density, 293.15 K [kg/m3] | mass density, 298.15 K [kg/m3] | mass density, 303.15 K [kg/m3] | refractive index, 293.15 K | refractive index, 298.15 K | refractive index, 303.15 K | viscosity, 293.15 K [mPa·s] | viscosity, 298.15 K [mPa·s] | viscosity, 303.15 K [mPa·s]
[1], x1 = 0.1003 | 737.55 | 730.48 | 726.35 | – | – | – | 0.7027 | 0.6663 | 0.6209
[1], x1 = 0.1991 | 752.72 | 748.56 | 744.37 | – | – | – | 0.6975 | 0.6588 | 0.6172
[1], x1 = 0.2995 | 776.9 | 768.71 | 764.41 | – | – | – | 0.7043 | 0.662 | 0.6139
[1], x1 = 0.3997 | 795.17 | 790.9 | 786.51 | – | – | – | 0.7127 | 0.6693 | 0.6315
[1], x1 = 0.4998 | 819.75 | 815.37 | 810.88 | – | – | – | 0.7381 | 0.6982 | 0.6485
[1], x1 = 0.5907 | 844.35 | 839.87 | 835.33 | – | – | – | 0.7718 | 0.7299 | 0.6758
[1], x1 = 0.6975 | 876.64 | 872.08 | 867.39 | – | – | – | 0.8298 | 0.7801 | 0.7158
[1], x1 = 0.8008 | 911.95 | 907.24 | 902.38 | – | – | – | 0.9049 | 0.8452 | 0.7771
[1], x1 = 0.898 | 949.42 | 944.51 | 939.7 | – | – | – | 0.9871 | 0.9159 | 0.8365
[1], x1 = 1 | 993.81 | 989.15 | 984.42 | – | – | – | 1.085 | 1.017 | 0.9285
[2], x1 = 0.116 | – | – | – | 1.4119 | 1.4103 | 1.4074 | – | – | –
[2], x1 = 0.218 | – | – | – | 1.4191 | 1.4173 | 1.4148 | – | – | –
[2], x1 = 0.32 | – | – | – | 1.4276 | 1.4257 | 1.4234 | – | – | –
[2], x1 = 0.413 | – | – | – | 1.4361 | 1.4343 | 1.432 | – | – | –
[2], x1 = 0.4989 | – | – | – | 1.4448 | 1.443 | 1.4409 | – | – | –
[2], x1 = 0.5907 | – | – | – | 1.4553 | 1.4534 | 1.4515 | – | – | –
[2], x1 = 0.673 | – | – | – | 1.466 | 1.4639 | 1.4619 | – | – | –
[2], x1 = 0.782 | – | – | – | 1.4811 | 1.4789 | 1.4771 | – | – | –
[2], x1 = 0.8965 | – | – | – | 1.4984 | 1.4961 | 1.4944 | – | – | –
[2], x1 = 1 | – | – | – | 1.5161 | 1.5141 | 1.5129 | – | – | –

CCCCCCCCCCCC [dodecane] + COc1ccccc1
x2 = 0
Conditions | mass density, 293.15 K [kg/m3] | mass density, 298.15 K [kg/m3] | mass density, 303.15 K [kg/m3] | refractive index, 293.15 K | refractive index, 298.15 K | refractive index, 303.15 K | viscosity, 293.15 K [mPa·s] | viscosity, 298.15 K [mPa·s] | viscosity, 303.15 K [mPa·s]
[1] | 748.78 | 745.14 | 741.52 | – | – | – | 1.487 | 1.373 | 1.25
[2] | – | – | – | 1.421 | 1.4172 | 1.4135 | – | – | –
